Results as given in patent US20240216288A1, “LIPID NANOPARTICLES CONTAINING POLYNUCLEOTIDES ENCODING PROPIONYL-COA CARBOXYLASE ALPHA AND BETA SUBUNITS AND USES THEREOF” (ModernaTX, Inc., priority 2021, published 2024).

Test: Residual parent lipid in mouse liver at 24 h (hEPO study)
Assay type: in vivo
Details: CD-1 mice

Parent Lipid Remaining (nmol/g liver tissue) at 24 h: 0.1 0.04 nmol/g liver tissue
SMILES: CCCCCC(CCCCC)CCOC(=O)CCCCCCCN(CCO)CCCCCCCC(=O)OCCC(CCCCC)CCCCC [compound 25]
